Test results: US5849729A, “Use of hydrolyzed cocoa butter for percutaneous absorption” (Hershey Foods Corporation, priority 1995, dated 1998)
Where “and” joins values, the source holds several entries; their conditions need not be identical. Identical values can stand only once. Entries after “also recorded” stand apart in the source; their conditions may differ. Like-named read-outs stand apart in the source and are kept apart here.

What was measured:
[1] = cited from earlier work
[2] = In-vitro percutaneous absorption of retinoic acid and triamcinolone acetonide from two cocoa butter vehicles (Franz cells, 48 h); details: for Penet (Total Penetration) / % Abs (% Absorbed) / Total Penetration / % Absorbed / total absorption: 48 h; for % Abs (% Absorbed) / % Absorbed / total absorption: percent of applied dose
Source text: The objective of this study was to measure the permeation of retinoic acid and triamcinolone acetonide through human skin in-vitro from two cocoa butter vehicles.
Two cocoa butter vehicles supplied by Hershey Foods Corporation were utilized: (1) pure cocoa butter and (2) partially hydrolyzed cocoa butter emulsion. Radioactive [11,12-^3 H] [retinoic acid (NET 920, Lot 2930-067, specific activity 1 mCi/ml) and [6,7-^3 H]-triamcinolone acetonide (NET 470, Lot 2904-170, specific activity 1 mCi/ml) were obtained from Dupont-New England Nuclear Corporation, Boston, Mass.
Each of the two cocoa butter vehicles was spiked separately with ^3 H-retinoic acid and ^3 H-Triamcinolone acetonide to give a total of four radioactive formulations for study. This was done by adding 25 μl (containing 25 μCi) of each tracer solution to approximately 1 gram of each vehicle and mixing with the tip of the dispensing micropipette. The pure cocoa butter vehicle was liquified by holding it under warm tap water prior to spiking. This was not done with the partially hydrolyzed cocoa butter emulsion. Neither formulation was used for three days after spiking to allow for diffusional mixing to take place. Final radioactive concentrations of each formulation were: […]
Human trunk skin without obvious signs of disease was used throughout. It was obtained within 24 hours of death, dermatomed to a thickness of approximately 0.25 mm, cryopreserved and sealed in water vapor-impermeableplastic bags. It was stored at -70° C. until the day of use then thawed by placing the bag in 37° C. water.
Skin from a single donor was cut into multiple sections large enough to fit on 0.8 cm^2 Franz cells. The dermal chamber was filled with isotonic saline, pH 7.4, into which a small magnetic stirring bar was placed. The epidermal chamber was left open to the ambient laboratory environment, approximately 22° C. and 40-60% RH. The cells were placed in a diffusion apparatus in which the dermal receptor solution was stirred magnetically at 600 RPM and its temperature maintained at 37° C.
To assure the integrity of each skin section, its permeability to tritiated water was determined before application of the test formulations. Following a brief (0.5-1 hour) equilibration period, 150 μl ^3 H2 O (specific activity 0.3 μCi/ml) was layered across the top of the skin section so that the entire exposed surface was covered. After 5 minutes the aqueous layer was removed and the surface of the skin carefully blotted dry. At t=0.5 hour the saline receptor phase was removed and analyzed for radioactive content by liquid scintillation counting. Skin specimens in which absorption of ^3 H2 O was less than 1.25 μl were considered acceptable.
Subsequently, each test formulation was applied at a target dose of 10 mg (cream) or 10 μl (butter). The cream formulation (partially hydrolyzed cocoa butter emulsion) was applied from the smooth, rounded-tip of a glass rod, the exact amount determined by weighing the rod before and after application. The butter formulation (pure cocoa butter) was first liquified under warm tap water, allowed to cool to room temperature, then applied with a 10 μl positive displacement micropipette prior to resolidifying. At 4, 8, 12, 24, 36 and 48 hours the receptor solution was removed in its entirety, replaced with fresh solution, and a 1 ml aliquot taken and assayed for radioactive content by liquid scintillation counting.
A 1 ml aliquot of each receptor sample containing ^3 H2 O, ^3 H-retinoic acid, or ^3 H-triamcinolone acetonide was placed in a 7 ml glass scintillation vial and gelled by the addition of 5 ml Opti-Fluor (Packard Instrument Co., Meriden, Conn.). These were counted in a Packard Tri-Carb Model 1900CA Liquid scintillation Analyzer equipped with internal standard and automatic quench correction.

[3] = butter (pure cocoa butter), individual skin sections, listed as TRIAMINOLONE ACETONIDE
[4] = butter, average of three donors
[5] = cream (partially hydrolyzed cocoa butter emulsion), individual skin sections, listed as TRIAMINOLONE ACETONIDE

CN(C)C=O [Dimethylformamide]
side effects ([1]; topical use, in words): a sensation of burning and erythema on the skin

CC1(C)O[C@@H]2C[C@H]3[C@@H]4CCC5=CC(=O)C=C[C@]5(C)[C@@]4(F)[C@@H](O)C[C@]3(C)[C@]2(C(=O)CO)O1 [triamcinolone acetonide]
rate of absorption profile / flux ([2]; both cocoa butter formulations, in words): absorption continues to increase at a slow rate; also recorded: relatively high flux rates | Penet (Total Penetration) [2, 3]: 524.71 and 252.43 and 268.51 and 390.54 and 1505.05 and 2037.47 and 2111.25 and 1993.70 and 1506.22 and 770.57 and 821.16 and 931.82 | % Abs (% Absorbed) [2, 3]: 5.24% and 2.52% and 2.86% and 3.90% and 15.04% and 20.36% and 21.10% and 19.92% and 15.05% and 7.70% and 8.21% and 9.31% | Rate of absorption, R1 ([2]; butter (pure cocoa butter), sample R1, mid-t 2 h, individual skin sections, listed as TRIAMINOLONE ACETONIDE): 4.39 ng/cm^2 /hr and 1.60 ng/cm^2 /hr and 4.85 ng/cm^2 /hr and 2.94 ng/cm^2 /hr and 5.03 ng/cm^2 /hr and 5.86 ng/cm^2 /hr and 13.93 ng/cm^2 /hr and 14.30 ng/cm^2 /hr and 10.13 ng/cm^2 /hr and 6.97 ng/cm^2 /hr and 3.85 ng/cm^2 /hr and 4.31 ng/cm^2 /hr | Rate of absorption, R3 ([2]; butter (pure cocoa butter), sample R3, mid-t 10 h, individual skin sections, listed as TRIAMINOLONE ACETONIDE): 4.10 ng/cm^2 /hr and 1.98 ng/cm^2 /hr and 3.21 ng/cm^2 /hr and 1.85 ng/cm^2 /hr and 39.10 ng/cm^2 /hr and 54.60 ng/cm^2 /hr and 49.52 ng/cm^2 /hr and 41.58 ng/cm^2 /hr and 31.25 ng/cm^2 /hr and 11.42 ng/cm^2 /hr and 13.09 ng/cm^2 /hr and 17.61 ng/cm^2 /hr | Rate of absorption, R4 ([2]; butter (pure cocoa butter), sample R4, mid-t 18 h, individual skin sections, listed as TRIAMINOLONE ACETONIDE): 10.64 ng/cm^2 /hr and 4.64 ng/cm^2 /hr and 5.65 ng/cm^2 /hr and 6.96 ng/cm^2 /hr and 41.81 ng/cm^2 /hr and 61.91 ng/cm^2 /hr and 60.58 ng/cm^2 /hr and 63.34 ng/cm^2 /hr and 42.50 ng/cm^2 /hr and 16.59 ng/cm^2 /hr and 19.25 ng/cm^2 /hr and 21.60 ng/cm^2 /hr | Rate of absorption, R5 ([2]; butter (pure cocoa butter), sample R5, mid-t 30 h, individual skin sections, listed as TRIAMINOLONE ACETONIDE): 16.77 ng/cm^2 /hr and 7.47 ng/cm^2 /hr and 7.89 ng/cm^2 /hr and 11.61 ng/cm^2 /hr and 44.77 ng/cm^2 /hr and 55.96 ng/cm^2 /hr and 68.48 ng/cm^2 /hr and 56.67 ng/cm^2 /hr and 44.03 ng/cm^2 /hr and 24.96 ng/cm^2 /hr and 28.20 ng/cm^2 /hr and 30.50 ng/cm^2 /hr | Rate of absorption, R6 ([2]; butter (pure cocoa butter), sample R6, mid-t 42 h, individual skin sections, listed as TRIAMINOLONE ACETONIDE): 23.72 ng/cm^2 /hr and 12.43 ng/cm^2 /hr and 12.16 ng/cm^2 /hr and 19.97 ng/cm^2 /hr and 48.08 ng/cm^2 /hr and 65.20 ng/cm^2 /hr and 60.71 ng/cm^2 /hr and 62.32 ng/cm^2 /hr and 49.91 ng/cm^2 /hr and 30.50 ng/cm^2 /hr and 30.09 ng/cm^2 /hr and 34.64 ng/cm^2 /hr | Total Penetration [2, 4]: 1094.29 | Rate of absorption, R1 ([2]; butter, R1, mid-t 2 h, average of three donors): 6.52 ng/cm^2 /hr | Rate of absorption, R3 ([2]; butter, R3, mid-t 10 h, average of three donors): 22.44 ng/cm^2 /hr | Rate of absorption, R4 ([2]; butter, R4, mid-t 18 h, average of three donors): 29.62 ng/cm^2 /hr | Rate of absorption, R5 ([2]; butter, R5, mid-t 30 h, average of three donors): 33.11 ng/cm^2 /hr | Rate of absorption, R6 ([2]; butter, R6, mid-t 42 h, average of three donors): 37.48 ng/cm^2 /hr | % Absorbed / total absorption [2, 4]: 10.9% | % Absorbed / total absorption ([2]; butter, average of three donors, listed as Triamcinalone): 10.93% | rate of absorption, cream versus butter ([2]; comparison of both formulations, in words): The cream formulation gives a slightly higher rate of absorption than the butter | Penet (Total Penetration) [2, 5]: 254.48 and 668.59 and 249.45 and 118.36 and 2508.36 and 2312.05 and 2871.31 and 2499.51 and 947.51 and 935.57 and 1068.65 and 1271.22 | % Abs (% Absorbed) [2, 5]: 2.49% and 6.22% and 2.57% and 1.23% and 19.85% and 17.85% and 23.91% and 21.77% and 9.37% and 8.49% and 9.22% and 13.72% | Rate of absorption, R1 ([2]; cream (partially hydrolyzed cocoa butter emulsion), sample R1, mid-t 2 h, individual skin sections, listed as TRIAMINOLONE ACETONIDE): 3.04 ng/cm^2 /hr and 1.67 ng/cm^2 /hr and 5.26 ng/cm^2 /hr and 1.52 ng/cm^2 /hr and 18.29 ng/cm^2 /hr and 17.50 ng/cm^2 /hr and 18.71 ng/cm^2 /hr and 12.90 ng/cm^2 /hr and 4.30 ng/cm^2 /hr and 2.33 ng/cm^2 /hr and 15.97 ng/cm^2 /hr and 3.83 ng/cm^2 /hr | Rate of absorption, R3 ([2]; cream (partially hydrolyzed cocoa butter emulsion), sample R3, mid-t 10 h, individual skin sections, listed as TRIAMINOLONE ACETONIDE): 3.36 ng/cm^2 /hr and 3.23 ng/cm^2 /hr and 5.64 ng/cm^2 /hr and 0.96 ng/cm^2 /hr and 59.17 ng/cm^2 /hr and 56.60 ng/cm^2 /hr and 68.40 ng/cm^2 /hr and 55.15 ng/cm^2 /hr and 21.00 ng/cm^2 /hr and 18.75 ng/cm^2 /hr and 20.37 ng/cm^2 /hr and 22.71 ng/cm^2 /hr | Rate of absorption, R4 ([2]; cream (partially hydrolyzed cocoa butter emulsion), sample R4, mid-t 18 h, individual skin sections, listed as TRIAMINOLONE ACETONIDE): 5.74 ng/cm^2 /hr and 12.44 ng/cm^2 /hr and 6.13 ng/cm^2 /hr and 2.07 ng/cm^2 /hr and 63.18 ng/cm^2 /hr and 60.43 ng/cm^2 /hr and 79.96 ng/cm^2 /hr and 72.84 ng/cm^2 /hr and 26.40 ng/cm^2 /hr and 25.54 ng/cm^2 /hr and 27.04 ng/cm^2 /hr and 31.56 ng/cm^2 /hr | Rate of absorption, R5 ([2]; cream (partially hydrolyzed cocoa butter emulsion), sample R5, mid-t 30 h, individual skin sections, listed as TRIAMINOLONE ACETONIDE): 7.24 ng/cm^2 /hr and 17.67 ng/cm^2 /hr and 6.59 ng/cm^2 /hr and 3.75 ng/cm^2 /hr and 73.13 ng/cm^2 /hr and 69.96 ng/cm^2 /hr and 81.15 ng/cm^2 /hr and 70.51 ng/cm^2 /hr and 30.37 ng/cm^2 /hr and 30.85 ng/cm^2 /hr and 35.59 ng/cm^2 /hr and 41.22 ng/cm^2 /hr | Rate of absorption, R6 ([2]; cream (partially hydrolyzed cocoa butter emulsion), sample R6, mid-t 42 h, individual skin sections, listed as TRIAMINOLONE ACETONIDE): 10.49 ng/cm^2 /hr and 37.33 ng/cm^2 /hr and 7.93 ng/cm^2 /hr and 5.35 ng/cm^2 /hr and 83.06 ng/cm^2 /hr and 70.37 ng/cm^2 /hr and 91.88 ng/cm^2 /hr and 81.89 ng/cm^2 /hr and 28.80 ng/cm^2 /hr and 30.03 ng/cm^2 /hr and 32.01 ng/cm^2 /hr and 46.16 ng/cm^2 /hr | Total Penetration ([2]; cream, average of three donors): 1308.76 | % Absorbed / total absorption ([2]; cream, average of three donors): 11.4% | % Absorbed / total absorption ([2]; cream, average of three donors, listed as Triamcinalone): 11.39% | difference between partially hydrolyzed cocoa butter emulsion and pure cocoa butter as delivery vehicle ([2]; in words): no appreciable difference | average absorption ([2]; with cocoa butter and partially hydrolyzed cocoa butter emulsion (both vehicles)): about 11%

CNC(C)=O [methylacetamide]
side effects ([1]; in vivo): a sensation of burning and erythema on the skin

C[S+](C)[O-] [dimethyl sulfoxide]
side effects ([1]; topical use, in words): a foul taste and body odor, burning and erythema on the skin; a reduction in the relucency of the lens cortex and tissue necrosis
